Measured values reported in ChEMBL document CHEMBL1697781, “Assessment of the health effects of chemicals in humans: II. Construction of an adverse effects database for QSAR modeling” (Curr Drug Discov Technol, 2004).

Tests used:
Conditions in all cases: human; call rule not given here
Hepatotoxicity [1] = experiment: FDA HLAED, liver enzyme composite activity
Hepatotoxicity [2] = experiment: FDA HLAED, serum glutamic pyruvic transaminase (SGPT) increase
Hepatotoxicity [3] = experiment: FDA HLAED, serum glutamic oxaloacetic transaminase (SGOT) increase
Hepatotoxicity [4] = experiment: FDA HLAED, alkaline phosphatase increase

SMILES | Composite Activity - Active (Hepatotoxicity [1]) | Composite Activity - Marginal (Hepatotoxicity [1]) | other results
CN1CCN(C2=Nc3ccccc3Oc3ccc(Cl)cc32)CC1 [LOXAPINE] | 2 | 0 | Composite Activity - Score (Hepatotoxicity [1]): Active; SGPT Increase - Activity Score (Hepatotoxicity [2]): Active; SGPT Increase - Index Value (Hepatotoxicity [2]): 9.9; SGPT Increase - Number of Reports (Hepatotoxicity [2]): >= 4; SGOT Increase - Activity Score (Hepatotoxicity [3]): Active; SGOT Increase - Index Value (Hepatotoxicity [3]): 9.9; SGOT Increase - Number of Reports (Hepatotoxicity [3]): >= 4
CCOc1ccc2ccccc2c1C(=O)N[C@@H]1C(=O)N2[C@@H]1SC(C)(C)[C@@H]2C(=O)O [NAFCILLIN] | 1 | 0 | Alkaline Phosphatase Increase - Activity Score (Hepatotoxicity [4]): Active; Alkaline Phosphatase Increase - Index Value (Hepatotoxicity [4]): 10.9; Alkaline Phosphatase Increase - Number of Reports (Hepatotoxicity [4]): >= 4
O=C(O)c1cc(/N=N/c2ccc(S(=O)(=O)Nc3ccccn3)cc2)ccc1O [SULFASALAZINE] | 1 | 0 | SGPT Increase - Activity Score (Hepatotoxicity [2]): Active; SGPT Increase - Index Value (Hepatotoxicity [2]): 4; SGPT Increase - Number of Reports (Hepatotoxicity [2]): >= 4
CC(O)(P(=O)(O)O)P(=O)(O)O [ETIDRONIC ACID] | 1 | 0 | Alkaline Phosphatase Increase - Activity Score (Hepatotoxicity [4]): Active; Alkaline Phosphatase Increase - Index Value (Hepatotoxicity [4]): 8.6; Alkaline Phosphatase Increase - Number of Reports (Hepatotoxicity [4]): >= 4
Sc1ncnc2nc[nH]c12 [MERCAPTOPURINE ANHYDROUS] |  |  | Composite Activity - Active (Hepatotoxicity [1]; Liver): 2; Composite Activity - Marginal (Hepatotoxicity [1]; Liver): 0; Composite Activity - Score (Hepatotoxicity [1]; Liver): Active; SGPT Increase - Activity Score (Hepatotoxicity [2]): Active; SGPT Increase - Index Value (Hepatotoxicity [2]): 5.2; SGPT Increase - Number of Reports (Hepatotoxicity [2]): >= 4; SGOT Increase - Activity Score (Hepatotoxicity [3]): Active; SGOT Increase - Index Value (Hepatotoxicity [3]): 4.4; SGOT Increase - Number of Reports (Hepatotoxicity [3]): >= 4
FC(F)OC(F)(F)C(F)Cl (stereo not given) | 0 | 0 | 
C#C[C@]1(O)CC[C@H]2[C@@H]3CCC4=Cc5oncc5C[C@]4(C)[C@H]3CC[C@@]21C [DANAZOL] | 1 | 0 | SGPT Increase - Activity Score (Hepatotoxicity [2]): Active; SGPT Increase - Index Value (Hepatotoxicity [2]): 10.2; SGPT Increase - Number of Reports (Hepatotoxicity [2]): >= 4
C[C@H]1C[C@H]2[C@@H]3CCC4=CC(=O)C=C[C@]4(C)[C@@]3(F)[C@@H](O)C[C@]2(C)[C@@]1(O)C(=O)CO [BETAMETHASONE] | 0 | 0 | 
CN1CCN(CCCN2c3ccccc3Sc3ccc(C(F)(F)F)cc32)CC1 [TRIFLUOPERAZINE] | 0 | 0 | 
CC(=O)O.C[C@H]1C[C@@H]2[C@H]([C@@H](O)C[C@@]3(C)[C@H]2CC[C@]3(O)C(=O)CO)[C@@]2(C)C=CC(=O)C=C12 | 0 | 0 | 
COc1cc2nc(N3CCN(C(=O)c4ccco4)CC3)nc(N)c2cc1OC [PRAZOSIN] | 0 | 0 | 
C[C@@H]1C[C@H]2[C@@H]3CCC4=CC(=O)C=C[C@]4(C)[C@@]3(F)[C@@H](O)C[C@]2(C)[C@@]1(O)C(=O)CO [DEXAMETHASONE] | 0 | 0 | 
O=c1[nH]c(=O)n([C@H]2C[C@H](O)[C@@H](CO)O2)cc1F [FLOXURIDINE] | 0 | 0 | 
CCNC(C)Cc1cccc(C(F)(F)F)c1 (stereo not given) [FENFLURAMINE] | 0 | 0 | 
Cc1ncc([N+](=O)[O-])n1CCO [METRONIDAZOLE] | 1 | 0 | Alkaline Phosphatase Increase - Activity Score (Hepatotoxicity [4]): Active; Alkaline Phosphatase Increase - Index Value (Hepatotoxicity [4]): 6.2; Alkaline Phosphatase Increase - Number of Reports (Hepatotoxicity [4]): >= 4
NC(=O)NO [HYDROXYUREA] | 0 | 0 | 
C=CCC1(C(C)C#CCC)C(=O)N=C(O)N(C)C1=O (stereo not given) [METHOHEXITAL] | 0 | 0 | 
CN1[C@@H]2CC[C@H]1C[C@@H](OC(c1ccccc1)c1ccccc1)C2 [BENZTROPINE] | 0 | 0 | 
CN(C)c1ccc(O)c2c1C[C@H]1C[C@H]3[C@H](N(C)C)C(O)=C(C(N)=O)C(=O)[C@@]3(O)C(O)=C1C2=O [MINOCYCLINE] | 0 | 2 | SGPT Increase - Activity Score (Hepatotoxicity [2]): Marginally Active; SGPT Increase - Index Value (Hepatotoxicity [2]): No Shipping Units; SGPT Increase - Number of Reports (Hepatotoxicity [2]): >= 4; SGOT Increase - Activity Score (Hepatotoxicity [3]): Marginally Active; SGOT Increase - Index Value (Hepatotoxicity [3]): No Shipping Units; SGOT Increase - Number of Reports (Hepatotoxicity [3]): >= 4
N[C@@H](Cc1ccc(N(CCCl)CCCl)cc1)C(=O)O | 0 | 0 | 
OCCOCCN1CCN(C(c2ccccc2)c2ccc(Cl)cc2)CC1 (stereo not given) [HYDROXYZINE] | 0 | 0 | 
CNCCC=C1c2ccccc2CCc2ccccc21 [NORTRIPTYLINE] |  |  | Composite Activity - Active (Hepatotoxicity [1]; Liver): 1; Composite Activity - Marginal (Hepatotoxicity [1]; Liver): 1; SGPT Increase - Activity Score (Hepatotoxicity [2]): Marginally Active; SGPT Increase - Index Value (Hepatotoxicity [2]): 11.6; SGPT Increase - Number of Reports (Hepatotoxicity [2]): < 4; Alkaline Phosphatase Increase - Activity Score (Hepatotoxicity [4]): Active; Alkaline Phosphatase Increase - Index Value (Hepatotoxicity [4]): 15.4; Alkaline Phosphatase Increase - Number of Reports (Hepatotoxicity [4]): >= 4
C=C[C@H]1C[N@@]2CC[C@H]1C[C@@H]2[C@@H](O)c1ccnc2ccc(OC)cc12 [QUINIDINE] | 0 | 0 | 

SMILES | Composite Activity - Active (Hepatotoxicity [1]) | Composite Activity - Marginal (Hepatotoxicity [1]) | other results
CC(=O)OCC(=O)[C@@]1(O)[C@H](C)C[C@H]2[C@@H]3CCC4=CC(=O)C=C[C@]4(C)[C@@]3(F)[C@@H](O)C[C@@]21C [DEXAMETHASONE ACETATE] | 0 | 0 | 
CSc1ccc2c(c1)N(CCC1CCCCN1C)c1ccccc1S2 (stereo not given) [THIORIDAZINE] | 0 | 1 | Alkaline Phosphatase Increase - Activity Score (Hepatotoxicity [4]): Marginally Active; Alkaline Phosphatase Increase - Index Value (Hepatotoxicity [4]): 3.2; Alkaline Phosphatase Increase - Number of Reports (Hepatotoxicity [4]): >= 4
Nc1nc(=O)[nH]cc1F [FLUCYTOSINE] | 0 | 0 | 
CCCc1cc(=O)[nH]c(=S)[nH]1 [PROPYLTHIOURACIL] |  |  | Composite Activity - Active (Hepatotoxicity [1]; Liver): 0; Composite Activity - Marginal (Hepatotoxicity [1]; Liver): 0
N[C@@H]1C[C@H]1c1ccccc1.N[C@H]1C[C@@H]1c1ccccc1 [TRANYLCYPROMINE] |  |  | Composite Activity - Active (Hepatotoxicity [1]; Liver): 0; Composite Activity - Marginal (Hepatotoxicity [1]; Liver): 0
CS(=O)(=O)OCCCCOS(C)(=O)=O [BUSULFAN] | 0 | 0 | 
CC(C)(S)[C@@H](N)C(=O)O [PENICILLAMINE] | 0 | 0 | 
CC(=O)N[C@@H](CS)C(=O)O [ACETYLCYSTEINE] | 1 | 0 | SGPT Increase - Activity Score (Hepatotoxicity [2]): Active; SGPT Increase - Index Value (Hepatotoxicity [2]): 4.8; SGPT Increase - Number of Reports (Hepatotoxicity [2]): >= 4
C[C@H]1C[C@@H]2[C@H]([C@@H](O)C[C@@]3(C)[C@H]2CC[C@]3(O)C(=O)CO)[C@@]2(C)C=CC(=O)C=C12 [METHYLPREDNISOLONE] | 0 | 0 | 
CC(=O)Oc1ccccc1C(=O)O [ASPIRIN] | 0 | 0 | 
CN1C(=O)CN=C(c2ccccc2)c2cc(Cl)ccc21 [DIAZEPAM] |  |  | Composite Activity - Active (Hepatotoxicity [1]; Liver): 0; Composite Activity - Marginal (Hepatotoxicity [1]; Liver): 0
Cc1nnc(SCC2=C(C(=O)O)N3C(=O)[C@@H](NC(=O)Cn4cnnn4)[C@H]3SC2)s1 [CEFAZOLIN] | 0 | 0 | 
C#C[C@]1(O)CC[C@H]2[C@@H]3CCc4cc(OC)ccc4[C@H]3CC[C@@]21C [MESTRANOL] | 0 | 0 | 
FC(F)(F)C(Cl)Br (stereo not given) [HALOTHANE] | 1 | 0 | SGOT Increase - Activity Score (Hepatotoxicity [3]): Active; SGOT Increase - Index Value (Hepatotoxicity [3]): 16.5; SGOT Increase - Number of Reports (Hepatotoxicity [3]): >= 4
CC(=O)S[C@@H]1CC2=CC(=O)CC[C@]2(C)[C@H]2CC[C@@]3(C)[C@@H](CC[C@@]34CCC(=O)O4)[C@H]12 [SPIRONOLACTONE] | 0 | 0 | 
CCC(=O)O[C@]1(C(=O)COC(C)=O)CC[C@H]2[C@@H]3C[C@H](C)C4=CC(=O)C=C[C@]4(C)[C@H]3[C@@H](O)C[C@@]21C [METHYLPREDNISOLONE ACEPONATE] | 0 | 0 | 
CCC(=O)OCC(=O)[C@@]1(OC(=O)CC)[C@@H](C)C[C@H]2[C@@H]3CCC4=CC(=O)C=C[C@]4(C)[C@@]3(F)[C@@H](O)C[C@@]21C [BETAMETHASONE DIPROPIONATE] | 0 | 0 | 
C[C@](N)(Cc1ccc(O)c(O)c1)C(=O)O [METHYLDOPA] | 0 | 0 | 
C[C@@H]1[C@H](O)[C@@H](C)/C=C/C=C/C=C/C=C/C=C/C=C/C=C/[C@H](O[C@@H]2O[C@H](C)[C@@H](O)[C@H](N)[C@@H]2O)C[C@@H]2O[C@](O)(C[C@@H](O)C[C@@H](O)[C@H](O)CC[C@@H](O)C[C@@H](O)CC(=O)O[C@H]1C)C[C@H](O)[C@H]2C(=O)O [AMPHOTERICIN B] | 0 | 0 | 
CCCN(CCC)S(=O)(=O)c1ccc(C(=O)O)cc1 [PROBENECID] | 0 | 0 | 
CCC(=O)OCC(=O)[C@@]1(OC(=O)CC)[C@H](C)C[C@H]2[C@@H]3CCC4=CC(=O)C=C[C@]4(C)[C@@]3(F)[C@@H](O)C[C@@]21C [DEXAMETHASONE DIPROPIONATE] | 0 | 0 | 
C[C@]12C=CC(=O)C=C1CC[C@@H]1[C@@H]2C(=O)C[C@@]2(C)[C@H]1CC[C@]2(O)C(=O)CO [PREDNISONE] | 0 | 0 | 
